Each block holds one molecule with its values, some of them ahead of it.
How the values were obtained:
huHsp47 RNA = assay: Northern analysis of huHsp47 RNA expression in BFA treated EC; format: cell-based, human; settings: EC under BFA treatment, 0, 2 and 6 hour time points
Experimental: Northern analysis of huHsp47 RNA expression was carried out via a^32P-ATP nick translation labeling of the agarose gel purified full-length huHSP47 cDNA as probe and human beta action (a kind gift of Dr. S.N. Cohen) cDNA as internal control probe. Total RNA was harvested at 0 hour, 2 hour and 6 hour time points from EC undergoing BFA treatment. RNA for each time point was purified, denatured, subjected to formamide flatbed agarose gel electrophoresis, transferred to nitrocellulose, prehybridized, hybridized with the ^32P-labelled probes, washed under stringent conditions and autoradiographed without intensifier screens at −80° C. using techniques well known to those skilled in the art (see Sambrook et al. Molecular Cloning, A Laboratory Manual, second edition, Cold Spring Harbor Laboratory Press, 1989).

46.5 KDa protein (Hsp47) = assay: Immunoprecipitation and autoradiography of ^35S labeled 46.5 KDa protein from EC; format: cell-based, human
Experimental: For metabolic ^35S methionine/cysteine labelling cells were cultured for 22 hours in cysteine and methionine free RPMI 1640 or Hams-F12K (Irvine Scientific, Santa Ana, Calif.) media with dialyzed FCS, otherwise as described above, prior to the addition of 100 μCi ml-1 of Translabel (PIERCE/Amersham, Amersham, UK) ^35S methionine/cysteine at the start of BFA, control treatment and incubated for the indicated times. Pulse-chase labelled proteins were analyzed by SDS-PAGE, western analysis or autoradiography and silver staining.
Immunoprecipitation was carried out by first preparing preformed immune complexes as follows: Purified specific mouse monoclonal or rabbit polyclonal antibody were incubated in stoichiometric ratio with purified secondary goat anti-mouse or anti-rabbit antibody at a concentration of 10 μg ml-1 of 150 mM NaCl, 10 mM Tris-HCl, 1% (w/v) NP40, pH 7.8 with gentle agitation for 3 hours at 4° C. In a separate reaction their respective isotype matched control antibodies were coupled to protein A sepharose beads (Pharmacia, Uppsala, Sweden). […] The specific immune precipitate was recovered by centrifugation at 13,000 rpm for 30 minutes at 4° C., washed twice with 10 mM Tris-HCl at pH 6.8 and analyzed by SDS-PAGE and subsequent silver stain, transfer to solid support and streptavidin-AP detection and autoradiography. […]

OCI-Ly8 tumor cell = assay: ^51Cr release CIK cytotoxicity assay, tumor targets; format: cell-based, human; settings: OCI-Ly8 incubated with BFA 0-10 μM for 6 hours, E:T 20:1
Experimental: (§1) Target cells were metabolically labelled with ^51Cr (Dupont—New England Nuclear, Boston, Mass.) by incubating 1×10^6 cells in […] ^51Cr at 37° C. for 1-1.5 hours. The labelled cells were washed three times with phosphate buffered saline (PBS) containing 0.1% bovine serum albumin. The labelled cells were distributed in flat-bottomed 96 well microtiter plates at a concentration of 2×10^4 cells/well in triplicate. Effector (CIK) cells were added at the indicated ratios. Mabs were added prior to the addition of effector cells, and incubated for 15-30 minutes at room temperature. The final volume of the assay mixture in each well was 0.2 ml. After 4 hours at 37° C., the cells were collected by centrifugation and an aliquot of the supernatant was counted in a gamma counter (Micromedic Systems, Horsham, Pa.). The percentage of specific ^51Cr release was calculated according to the following equation: […]
Spontaneous release was obtained by incubating the labelled cells in complete medium alone and maximal release by treatment of the cells with 1% NP-40. […]

HUVEC = assay: ^51Cr release CIK cytotoxicity assay, endothelial cell targets pre-treated with BFA, protein or peptide; format: cell-based, human; design: block of CIK mediated lysis of HUVECs: dose or concentration left out as unconfirmed; settings: for protection of EC from CIK lysis by pre-incubation with purified native protein: gelatin purified protein, 30 minutes, washed before CIK addition
Experimental: as §1
Spontaneous release was obtained by incubating the labelled cells in complete medium alone and maximal release by treatment of the cells with 1% NP-40.
For brefeldin A (BFA) treatment, freshly confluent HUVEC monolayers, nonadherent target cells or CIK cells at 0.5-2×10^6 cells per ml were incubated with medium supplemented with 0.5-10 μg of brefeldin A (B6hringer Mannheim GmbH, Mannheim, Germany) per ml medium and incubated for 2-6 hours in a humidified incubator with 5% carbon dioxide at 37° C. BFA was dissolved at 100 μg per ml in 70% ethanol and used fresh or stored up to 4 weeks at −20° C. Prior to cytotoxicity assay the cells were rinsed three times with PBS, and fresh medium not containing BFA was added for the remainder of the assay (FIG. 4).
Both HUVEC and OCI-Ly8 cells were incubated with BFA at concentrations of 0, 2.5, 5, 7.5 and 10 μM for 6 hours as described above, washed, labeled with ^51Cr and used in a cytotoxicity assay with d21 CIK cells at an E:T ratio of 20:1. Preincubation of EC targets with 2.5 μM BFA reduced CIK mediated cytotoxicity by 40%.
Subsequent to ^51Cr labeling but prior to addition of effector cells 10-200 μg FPLC purified Hsp47 (Example 7) protein or 10 nM to 10 μM HPLC purified peptide […] (SEQ ID NO:3) (Example 8), both in sterile PBS at pH 7.4 and diluted to the final concentration with RPMI, were added to targets per ml of medium and incubated for 30 minutes at 37° C. in a humidified atmosphere of 5% CO2. In assays using purified protein, targets were subjected to three subsequent washes with 10 volumes of Ca^2+, Mg^2+ and 5% FCS containing PBS prior to providing fresh standard culture medium to the target cells. In assays using purified peptide, the added peptide was present for the entire assay. The remainder of the assay was performed as detailed above, at 37° C. in a humidified atmosphere of 5% CO2.

[1] = molecular target: receptors for huHsp47 on CIK cells; assay: FACS of mature d21 CIK cells stained with 10 ug/ml eGFP-huHsp47, PE-CD56 co-staining
mature d21 CIK = assay: FACS analysis of mature d21 CIK with eGFP-tagged huHsp47 probe; format: binding, human; settings: 10 μg eGFP-huHsp47 per ml, PE-CD56 co-staining
Experimental: For Fluorescence Activated Cell Sorting (FACS) 10^6 effector or target cells were washed twice with Ca^2+, Mg^2+ and 5% FCS containing PBS buffer, suspended in 50 μl of this buffer and placed at 0-4° C. in the dark. 1 μg of FITC-, PE-, Per-CP or TriColor labelled monoclonal antibody (Beckton Dickinson, San Jose, Calif.) per staining reaction of 10^6 cells was mixed with the cells and incubated for 15 to 30 minutes at 0-4° C. in the dark. Stained cells were subjected to three subsequent washes with 10 volumes of Ca^2+, Mg^2+ and 5% FCS containing PBS and taken up in 500 μl of this buffer for analysis or sort by FACScan/FACStar (Beckton Dickinson, San Jose, Calif.) with excitation at 488 nm and the appropriate channel filters for detection of emission.
The huHsp47δRDEL-enhanced green fluorescent protein (eGFP) fusion protein, expressed under the control of the CMV IE promoter, was isolated as described above and used as a FACS probe to search for huHsp47 cell surface binding proteins. […]
eGFP-tagged Hsp47 FACS probe was generated through additional genetic engineering (FIG. 8A) (SEQ ID NOS: 15-18). […] FACS analysis of mature d21 CIK with eGFP-tagged HuHsp47 as FACS probe for the FITC channel, with CE56-PE co-staining, is based on differences in the Hsp47 binding ability of the analyzed CIK. […]

Molecule: CC1CCCC=CC2CC(O)CC2C(O)C=CC(=O)O1 (centres unmarked) [BFA, 1,6,7,8,9,11a,12,13,14,14a-decahydro-1,13-dihydroxy-6-methyl-4H-cyclopent[f]oxacyclotridecin-4-one, reference compound]
expression of housekeeping gene beta action (huHsp47 RNA): does not affect
huHsp47 gene expression (huHsp47 RNA): does upregulate
^35S labeled 46.5 KDa protein in IP from EC (46.5 KDa protein (Hsp47); non-protective dose of 30 μM BFA): not detectable
^35S labeled 46.5 KDa protein in IP from EC (46.5 KDa protein (Hsp47); protective dose of 10 μm BFA): contained a ^35S labeled 46.5 KDa protein
effect on ability of CIK cells to lyse tumor targets (OCI-Ly8 tumor cell): did not affect
suppression of CIK mediated lysis of EC (HUVEC; BFA 0, 2.5, 5, 7.5 and 10 μM for 6 hours, E:T 20:1): suppress the CIK mediated lysis of EC in a dose dependent manner
persistence of resistant EC state after removal of the agent (HUVEC; after BFA removal): at least six hours
block of CIK mediated lysis of HUVECs (HUVEC; preincubation in BFA (so in the source), 6 hours, E:T 20:1): completely block
reduction of CIK mediated cytotoxicity against EC targets (HUVEC; preincubation with 2.5 μM BFA for 6 hours, d21 CIK, E:T 20:1): 40%

percent of cells positive for both eGFP-huHsp47 and PE-CD56 probes [1]: 26%
Molecule: huHsp47δRDEL-enhanced green fluorescent protein (eGFP) fusion protein (from UniProt P50454 19-414)

B1: huHsp47: native human Hsp47, 46.5 KDa protein gelatin-affinity purified from BFA induced HUVEC (protein)
chain: AEVKKPVEAAAPGTAEKLSSKATTLAEPSTGLAFSLYQAMAKDQAVENILVSPVVVASSLGLVSLGGKATTASQAKAVLSAEQLRDEEVHAGLGELLRSLSNSTARNVTWKLGSRLYGPSSVSFADDFVASSKQHYNCEHSKINFPDKRSALQSINEWAAQTTDGKLPEVTKDVESTDGALLVNAMFFKPHWDEKFHHKMVDNRGFMVTRSYTVGVTMMHRTGLYNYYDDEKEKLQLVEMPLAHKLSSLIILMPHHVEPLERLEKLLTKEQLKIWMGKMQKKAVAISLPKGVVEVTHDLQKHLAGLGLTEAIDKNKADLSRMSGKKDLYLASVFHATAFELDTDGNPFDQDIYGREELRSPKLFYADHPFIFLVRDTQSGSLLFIGRLVRLKGDKMRDEL
protection of EC from CIK mediated lysis (HUVEC; 20 μm of gelatin-affinity purified huHsp47 per 300 μl): completely protect
protection of EC from CIK lysis by pre-incubation with purified native protein (HUVEC): protects EC
protection of EC from CIK lysis by pre-incubation with purified native protein (HUVEC; listed as p46.5): protect previously CIK sensitive EC in a dose responsive fashion

B2: eGFP-huHsp47: huHsp47δRDEL-enhanced green fluorescent protein fusion protein used as FACS probe (protein)
chain: AEVKKPVEAAAPGTAEKLSSKATTLAEPSTGLAFSLYQAMAKDQAVENILVSPVVVASSLGLVSLGGKATTASQAKAVLSAEQLRDEEVHAGLGELLRSLSNSTARNVTWKLGSRLYGPSSVSFADDFVASSKQHYNCEHSKINFPDKRSALQSINEWAAQTTDGKLPEVTKDVESTDGALLVNAMFFKPHWDEKFHHKMVDNRGFMVTRSYTVGVTMMHRTGLYNYYDDEKEKLQLVEMPLAHKLSSLIILMPHHVEPLERLEKLLTKEQLKIWMGKMQKKAVAISLPKGVVEVTHDLQKHLAGLGLTEAIDKNKADLSRMSGKKDLYLASVFHATAFELDTDGNPFDQDIYGREELRSPKLFYADHPFIFLVRDTQSGSLLFIGRLVRLKGDKM
modifications: left off: large carriers
notes: huHsp47δRDEL-enhanced green fluorescent protein fusion protein used as FACS probe
CIK cells stained by eGFP-tagged Hsp47 probe (mature d21 CIK): 26%

Reference: patent US20080241194A1, “COMPOSITIONS AND METHODS FOR PROTECTING ORGANS, TISSUE AND CELLS FROM IMMUNE SYSTEM-MEDIATED DAMAGE” (THE BOARD OF TRUSTEES OF THE LELAND STANFORD JUNIOR …, priority 1998, published 2008)
